Assay results from patent US20150342193A1, “Herbicidal Composition” (priority 2012, published 2015).

How the values were obtained:
Assay in all cases: greenhouse post-emergence treatment, herbicidal activity
AMBEL = assay type: in vivo, Ambrosia artemisiifolia
Description: (§1) The culture containers used were plastic pots containing loamy sand with approximately 2-3.0% of organic matter. The seeds of the test plants were sown separately for each species.
(§2) For the post-emergence treatment, the test plants were grown to a plant height of from 3 to 15 cm, depending on the plant habit, and only then treated with the active compounds which had been suspended or emulsified in water. To this end, the test plants were either sown directly, and grown in the same containers, or they were first grown separately as seedlings and transplanted into the test containers a few days prior to treatment.
(§3) Depending on the species, the plants were kept at 10-25° C. and 20-35° C., respectively. The test period extended over 2 to 4 weeks. During this time, the plants were tended and their response to the individual treatments was evaluated.
(§4) Evaluation was carried out using a scale from 0 to 100. 100 means no emergence of the plants, or complete destruction of at least the above-ground parts, and 0 means no damage or normal course of growth. A good herbicidal activity is given at values of at least 70, and very good herbicidal activity is given at values of at least 85.
(§5) In the examples below, using the method of S. R. Colby (1967) “Calculating synergistic and antagonistic responses of herbicide combinations”, Weeds 15, p. 22ff., the value E, which is expected if the activity of the individual active compounds is only additive, was calculated.
(§6) where X=percent activity using active compound A at an application rate a; Y=percent activity using active compound B at an application rate b; E=expected activity (in %) by A+B at application rates a+b.
(§7) where X=percent activity using active compound A at an application rate a; Y=percent activity using active compound B at an application rate b; Z=percent activity using active compound D at an application rate d; E=expected activity (in %) by A+B+D at application rates a+b+d.
(§8) If the value found experimentally is higher than the value E calculated according to Colby, a synergistic effect is present.
(§9) For preparation of the mixtures herbicides A were used in form of an aqueous solution comprising 22.5% by weight of the respective herbicide A. The herbicides B and D were used in form of the respective commercially available formulations as identified below. 1,5-dimethyl-6-thioxo-3-(2,2,7-trifluoro-3-oxo-4-(prop-2-ynyl)-3,4-dihydro-2H-benzo[b][1,4]oxazin-6-yl)-1,3,5-triazinane-2,4-dione (B.14) was used in form of 10% by weight suspension concentrate. If appropriate, the adjuvant DASH® HC was added to the mixtures.

PANDI = assay type: in vivo, Panicum dichotomiflorun
Description: as §1, §2, §3, §4, §5, §6, §7, §8, §9

ERBVI = assay type: in vivo, Eriochloa villosa; details: Example 4 (title: +1% by weight DASH® HC)
Description: as §1, §2, §3
(§10) Evaluation was carried out using a scale from 0 to 100. […]
(§11) In the examples below, using the method of S. R. Colby (1967) “Calculating synergistic and antagonistic responses of herbicide combinations”, Weeds 15, p. 22ff., the value E, which is expected if the activity of the individual active compounds is only additive, was calculated. […]
(§12) If the value found experimentally is higher than the value E calculated according to Colby, a synergistic effect is present. […]

POLPE = assay type: in vivo, Polygonum persicaria
Description: as §1, §2, §3, §4, §5, §6, §7, §8, §9

HELAN = assay type: in vivo, Helianthus annuus
Description: as §1, §2, §3, §4, §5, §6, §7, §8, §9

DIGSA = assay type: in vivo, Digitaria sanguinales
Description: as §1, §2, §3, §4, §5, §6, §7, §8, §9

COMBE = assay type: in vivo, Commelina benghalensis
Description: as §1, §2, §3, §10, §11, §12

ECHCG = assay type: in vivo, Echinochloa crus-galli
Description: as §1, §2, §3, §4, §5, §6, §7, §12

CHEAL = assay type: in vivo, Chenopodium album
Description: as §1, §2, §3, §4, §5, §6, §7, §12

ABUTH = assay type: in vivo, Abutilon theophrasti
Description: as §1, §2, §3, §4, §5, §6, §7, §12

BRADC = assay type: in vivo, Brachiaria decumbens
Description: as §1, §2, §3, §10, §11, §12

ERICA = assay type: in vivo, Erigeron canadensis
Description: as §1, §2, §3, §4, §5, §6, §7, §8, §9

PHBPU = assay type: in vivo, Pharbitis purpurea
Description: as §1, §2, §3, §4, §5, §6, §7, §8, §9

CYPES = assay type: in vivo, Cyperus esculentus; details: Example 6 (title: +1% by weight DASH® HC)
Description: as §1, §2, §3, §10, §11, §12

PHACA = assay type: in vivo, Phalaris canariensis L.; details: Example 10, 31.25 g/ha a.i.
Description: as §1, §2, §3, §10, §11, §12

BRAPP = assay type: in vivo, Urochloa platyphylla; details: Example 10, 31.25 g/ha a.i.
Description: as §1, §2, §3, §10, §11, §12

[1] = Example 5 (title: +1% by weight DASH® HC), post-emergence, B.28 31.25 g/ha a.i.
[2] = Example 5 (title: +1% by weight DASH® HC); post-emergence; a1) 31.25 g/ha a.i.

CCOC(=O)C(Cl)Cc1cc(-n2nc(C)n(C(F)F)c2=O)c(F)cc1Cl (stereo not shown) [B.7, carfentrazone-ethyl]
herbicidal activity against AMBEL found (AMBEL; Example 11, post-emergence, 15 g/ha a.i.): 75%
herbicidal activity against AMBEL found (AMBEL; Example 12, post-emergence, B.7 68 g/ha a.i.): 70%

CC(C)N(C)S(=O)(=O)NC(=O)c1cc(-n2c(=O)cc(C(F)(F)F)n(C)c2=O)c(F)cc1Cl [B.12, saflufenacil]
herbicidal activity against PANDI found (PANDI; Example 4 (title: +1% by weight DASH® HC), post-emergence, 6.25 g/ha a.i.): 95%
herbicidal activity against ERBVI found (ERBVI; 6.25 g/ha a.i.): 80%

Cc1c(C(=O)c2cnn(C)c2O)ccc(S(C)(=O)=O)c1C1=NOCC1 [B.25, topramezone]
herbicidal activity against POLPE found (POLPE; Example 2, 12.5 g/ha a.i.): 75%
herbicidal activity against HELAN found (HELAN; Example 2, 12.5 g/ha a.i.): 80%
herbicidal activity against DIGSA found (DIGSA; Example 2, 12.5 g/ha a.i.): 65%
herbicidal activity against DIGSA found (DIGSA; Example 9, 12.5 g/ha a.i.): 70%
herbicidal activity against COMBE found (COMBE; Example 2, 12.5 g/ha a.i.): 60%
herbicidal activity against ECHCG found (ECHCG; Example 9, 12.5 g/ha a.i.): 40%
herbicidal activity against CHEAL found (CHEAL; Example 9, 12.5 g/ha a.i.): 25%
herbicidal activity against ABUTH found (ABUTH; Example 9, 25 g/ha a.i.): 90%

O=C(O)CNCP(=O)(O)O [B.26, glyphosate]
herbicidal activity against BRADC found (BRADC; Example 1, 135 g/ha a.i.): 80%
herbicidal activity against POLPE found (POLPE; Example 1, 135 g/ha a.i.): 60%
herbicidal activity against AMBEL found (AMBEL; Example 12, post-emergence, B.26 15 g/ha a.i.): 75%

CP(=O)(O)CCC(N)C(=O)O (stereo not shown) [B.27, glufosinate]
herbicidal activity against ERICA found (ERICA; Example 8 (title: +1% by weight DASH® HC), 100 g/ha a.i.): 65%

Cc1ccc2c(c1)[C@H](Nc1nc(N)nc(C(C)F)n1)[C@@H](C)C2 (stereo partly shown) [B.28, indaziflam]
herbicidal activity against ERICA found (ERICA; Example 7 (title: +1% by weight DASH® HC), 75 g/ha a.i.): 75%
herbicidal activity against PANDI found (PANDI; [1]): 80%
herbicidal activity against PANDI found (PANDI; Example 6 (title: +1% by weight DASH® HC), post-emergence, 6.25 g/ha a.i.): 60%
herbicidal activity against PHBPU found (PHBPU; [1]): 98%
herbicidal activity against PHBPU found (PHBPU; Example 7 (title: +1% by weight DASH® HC), post-emergence, 75 g/ha a.i.): 65%
herbicidal activity against CYPES found (CYPES; 6.25 g/ha a.i.): 55%

COc1c(Cl)ccc(Cl)c1C(=O)O [B.32, dicamba]
herbicidal activity against HELAN found (HELAN; Example 3, 60 g/ha a.i.): 80%
herbicidal activity against ERICA found (ERICA; Example 3, 60 g/ha a.i.): 95%
herbicidal activity against AMBEL found (AMBEL; Example 3, post-emergence, 60 g/ha a.i.): 85%

CCNc1nc(Cl)nc(NC(C)C)n1 [D.3, atrazine]
herbicidal activity against DIGSA found (DIGSA; Example 9, 150 g/ha a.i.): 0%
herbicidal activity against ECHCG found (ECHCG; Example 9, 150 g/ha a.i.): 0%
herbicidal activity against CHEAL found (CHEAL; Example 9, 150 g/ha a.i.): 35%
herbicidal activity against ABUTH found (ABUTH; Example 9, 150 g/ha a.i.): 60%

C/C=C1/CC2=C(C(=O)OC2=O)[C@H](CCC)[C@H](O)C(=O)C[C@@H]1O [a1), cornexistin]
herbicidal activity against BRADC found (BRADC; Example 1, 125 g/ha a.i.): 50%
herbicidal activity against POLPE found (POLPE; Example 1, 125 g/ha a.i.): 60%
herbicidal activity against POLPE found (POLPE; Example 2, 125 g/ha a.i.): 60%
herbicidal activity against HELAN found (HELAN; Example 2, 125 g/ha a.i.): 20%
herbicidal activity against HELAN found (HELAN; Example 3, 125 g/ha a.i.): 20%
herbicidal activity against DIGSA found (DIGSA; Example 2, 125 g/ha a.i.): 90%
herbicidal activity against DIGSA found (DIGSA; Example 9, 31.25 g/ha a.i.): 25%
herbicidal activity against COMBE found (COMBE; Example 2, 125 g/ha a.i.): 60%
herbicidal activity against ERICA found (ERICA; Example 3, 125 g/ha a.i.): 40%
herbicidal activity against ERICA found (ERICA; Example 7 (title: +1% by weight DASH® HC), 31.25 g/ha a.i.): 40%
herbicidal activity against ERICA found (ERICA; Example 8 (title: +1% by weight DASH® HC), 31.25 g/ha a.i.): 20%
herbicidal activity against AMBEL found (AMBEL; Example 3, post-emergence, 125 g/ha a.i.): 65%
herbicidal activity against AMBEL found (AMBEL; Example 11, post-emergence, 62.5 g/ha a.i.): 90%
herbicidal activity against AMBEL found (AMBEL; Example 12; post-emergence; a1) 15 g/ha a.i.): 35%
herbicidal activity against PANDI found (PANDI; Example 4 (title: +1% by weight DASH® HC), post-emergence, 62.5 g/ha a.i.): 95%
herbicidal activity against PANDI found (PANDI; [2]): 90%
herbicidal activity against PANDI found (PANDI; Example 6 (title: +1% by weight DASH® HC), post-emergence, 62.5 g/ha a.i.): 95%
herbicidal activity against ERBVI found (ERBVI; 62.5 g/ha a.i.): 90%
herbicidal activity against PHBPU found (PHBPU; [2]): 70%
herbicidal activity against PHBPU found (PHBPU; Example 7 (title: +1% by weight DASH® HC), post-emergence, 31.25 g/ha a.i.): 70%
herbicidal activity against CYPES found (CYPES; 62.5 g/ha a.i.): 0%
herbicidal activity against ECHCG found (ECHCG; Example 9, 31.25 g/ha a.i.): 30%
herbicidal activity against CHEAL found (CHEAL; Example 9, 31.25 g/ha a.i.): 0%
herbicidal activity against ABUTH found (ABUTH; Example 9, 31.25 g/ha a.i.): 60%
herbicidal activity against PHACA found (PHACA): 25%
herbicidal activity against BRAPP found (BRAPP): 25%
